Values quoted from earlier work as cited in PMC7395068, “The evolution of strategies to minimise the risk of human drug-induced liver injury (DILI) in drug discovery and development” (Archives of Toxicology, 2020).
Read-outs that look alike come from different tables or passages of the source.

Experiments:
PHH spheroids = conditions: In vitro Assay; ref Vorrink 2018; cited from earlier work
[1] = cited from earlier work
[2] = tested on: isolated mouse liver mitochondria; conditions: In vitro Assay; ref Porceddu 2012; cited from earlier work
HepG2 cells = conditions: In vitro Assay; ref Persson 2013; cited from earlier work
human hepatocytes = conditions: In vitro Assay; ref Xu 2008; cited from earlier work
[3] = tested on: THLE or HepG2 cells, isolated mitochondria, BSEP; conditions: In vitro Assay; ref Aleo 2019; cited from earlier work
[4] = ref Chen 2016; cited from earlier work

Row | SMILES | hLiMTs ATP <20 x Cmax (PHH spheroids) | In vivo DILI ([1]; […]) | In vivo DILI ([1]; ref Porceddu 2012) | In vivo DILI ([1]; ref Vorrink 2018) | in vitro data EC2<=1x Cmax [2] | in vitro data EC20<=2uM [2] | Cluser analysis (HepG2 cells) | Structural based (HCI) (human hepatocytes) | Partition Hybrid HRM Score [3] | Ro2 Hybrid HRM Score [3] | DILI +VE (5-8), DILI -VE (-4) [4] | DILI severity category [4] | In vivo DILI ([1]; ref Xu 2008) | In vivo DILI ([1]; ref Aleo 2019) | Structural based (HCI) (HepG2 cells) | In vivo DILI ([1]; ref Persson 2013)
1 | O=c1ccc2ccccc2o1 [coumarin] | +VE (IC20 < 20 × Cmax.tot cut-off) | +VE | +VE | +VE | +VE | +VE | – | – | – | – | – | – | – | – | – | –
2 | CC(C)OC(=O)C(C)(C)Oc1ccc(C(=O)c2ccc(Cl)cc2)cc1 [fenofibrate] | +VE (IC20 < 20 × Cmax.tot cut-off) | – | – | – | – | – | -VE | -VE | +VE | +VE | – | – | – | – | – | –
3 | COC1=CC(=O)C[C@@H](C)[C@]12Oc1c(Cl)c(OC)cc(OC)c1C2=O [griseofulvin] | -VE | – | – | – | – | – | – | -VE | +VE | +VE | – | – | – | – | – | –
4 | COC(=O)C1=C(C)NC(C)=C(C(=O)OCC(C)C)C1c1ccccc1[N+](=O)[O-] (centres unmarked) [nisoldipine] | -VE | -VE | – | -VE | – | – | – | -VE | – | – | -VE | Ambiguous DILI-concern | -VE | – | – | –
5 | Nc1ccc(/N=N/c2ccccc2)c(N)n1 [phenazopyridine] | -VE | – | – | +VE | – | – | – | -VE | +VE | -VE | – | – | +VE | -VE | – | –
6 | NNCCc1ccccc1 [phenelzine] | -VE | +VE | – | -VE | – | – | – | -VE | – | – | +VE | vLess-DILI-Concern | -VE | – | – | –
7 | CC[C@@H]1C(=O)OC[C@@H]1Cc1cncn1C [pilocarpine] | -VE | – | – | -VE | – | – | – | -VE | – | – | -VE | Ambiguous DILI-concern | -VE | – | – | –
8 | CCOC(=O)[C@H](CCc1ccccc1)N[C@@H](C)C(=O)N1Cc2ccccc2C[C@H]1C(=O)O [quinapril] | -VE | – | – | +VE | – | – | – | -VE | – | – | +VE | vLess-DILI-Concern | +VE | – | – | –
9 | O=C(c1ccc(OCCN2CCCCC2)cc1)c1c(-c2ccc(O)cc2)sc2cc(O)ccc12 [raloxifene] | -VE | -VE | – | -VE | – | – | – | -VE | – | – | -VE | vNo-DILI-Concern | -VE | – | – | –
10 | Cc1nc2n(c(=O)c1CCN1CCC(c3noc4cc(F)ccc34)CC1)CCCC2 [risperidone] | -VE | – | – | +VE | – | – | +VE | -VE | – | – | – | – | +VE | – | -VE | +VE
